The text below walks through data of patent US10959432B2, “Microbiocidal oxadiazole derivatives” (Syngenta Participations AG, priority 2016, dated 2021).

Common to all, as to format: in vivo
In experiment [1] the test system is Puccinia recondita f. sp. tritici. Description: Fungicidal activity against Puccinia recondita f. sp. tritici / wheat / leaf disc preventative (brown rust). To be noted: foliar, 200 ppm in the applied formulation, wheat leaf segments cv. Kanzler, preventative (inoculated 1 day after application), assessed 7 to 9 days after application, read-out: disease control compared to untreated control leaf disks. The method in brief: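 Preventative leaf-segment test: compound sprayed at 200 ppm onto wheat (cv. Kanzler) segments, brown rust spores applied 1 day after. Kept at 19C and 75% rh under 12 h light/dark cycles; disease control versus untreated check read 7 to 9 days post-application.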

The subject of another experiment is Uromyces viciae-fabae. The experiment is described as follows: Fungicidal activity against Uromyces viciae-fabae / field bean / leaf disc preventative (faba-bean rust). As to conditions: foliar, 288 h, 100 ppm in the applied formulation, field bean leaf discs, preventative (inoculated two hours after application), assessed 12 days after application, read-out: disease control compared to untreated control leaf discs. The protocol: Leaf disks or leaf segments of various plant species are cut from plants grown in a greenhouse. The cut leaf disks or segments are placed in multiwell plates (24-well format) onto water agar. The leaf disks are sprayed with a test solution before (preventative) or after (curative) inoculation. Compounds to be tested are prepared as DMSO solutions (max. 10 mg/ml) which are diluted to the appropriate concentration with 0.025% Tween20 just before spraying. The inoculated leaf disks or segments are incubated under defined conditions (temperature, relative humidity, light, etc.) according to the respective test system. A single evaluation of disease level is carried out 3 to 14 days after inoculation, depending on the pathosystem. Percent disease control relative to the untreated check leaf disks or segments is then calculated. General Examples of Liquid Culture Tests in Well Plates:
Example 5: Fungicidal Activity Against Uromyces viciae-fabae/Field Bean/Leaf Disc Preventative (Faba-Bean Rust)
Field bean leaf discs are placed on water agar in multiwell plates (96-well format) and 10 μl of the formulated test compound diluted in acetone and a spreader pipetted onto the leaf disc. Two hours after application leaf discs are inoculated by spraying a spore suspension on the lower leaf surface. The leaf discs are incubated in a climate cabinet at 22° C. with 18 hour day and 70% relative humidity. The activity of a compound is assessed as percent disease control compared to untreated when an appropriate level of disease damage appears in untreated check leaf disks (12 days after application).
The following compounds at 100 ppm in the applied formulation give at least 80% disease control in this test when compared to untreated control leaf discs under the same conditions, which show extensive disease development.

The next experiment concerns Phakopsora pachyrhizi. Description: Fungicidal activity against Phakopsora pachyrhizi / soybean / leaf disc preventative (Asian soybean rust). To be noted: foliar, 200 ppm in the applied formulation, soybean leaf disks, preventative (inoculated one day after application), assessed 12 to 14 days after application, read-out: disease control compared to untreated control leaf disks. In a few lines:
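Preventative test: compound applied to soybean leaf discs a day before spore inoculation of the lower surface. Discs kept at 20° C and 75% rh, first 24-36 h in darkness, then under 12 h light/day; disease control relative to untreated discs rated 12 to 14 days post-application.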

`O=C(N[C@H]1CCN(Cc2ccccc2)C1)c1ccc(-c2noc(C(F)(F)F)n2)cc1` [Compound 1a.6, N-[(3S)-1-benzylpyrrolidin-3-yl]-4-[5-(trifluoromethyl)-1,2,4-oxadiazol-3-yl]benzamide]: in experiment [1], the pest or weed control at 200 ppm is at least 80%. The pest or weed control at 100 ppm with Uromyces viciae-fabae was at least 80%.
For the compound `CN(CC1CCCCN1C)C(=O)c1ccc(-c2noc(C(F)(F)F)n2)cc1` (stereo not drawn) [Compound 1a.10, N-methyl-N-[(1-methyl-2-piperidyl)methyl]-4-[5-(trifluoromethyl)-1,2,4-oxadiazol-3-yl]benzamide], in experiment [1], the pest or weed control at 200 ppm was at least 80%. Moreover, the pest or weed control at 100 ppm in the experiment with Uromyces viciae-fabae is at least 80%.
With `CC(C)(C)OC(=O)N1CCC(CNC(=O)c2ccc(-c3noc(C(F)(F)F)n3)cc2)CC1` [Compound 1a.11, tert-butyl 4-[[[4-[5-(trifluoromethyl)-1,2,4-oxadiazol-3-yl]benzoyl]amino]methyl]piperidine-1-carboxylate], the pest or weed control at 200 ppm in experiment [1] was at least 80%. Further, the pest or weed control at 100 ppm with Uromyces viciae-fabae was at least 80%.
With `CCN1CCC[C@@H]1CNC(=O)c1ccc(-c2noc(C(F)(F)F)n2)cc1F` [Compound 1b.1, N-[[(2R)-1-ethylpyrrolidin-2-yl]methyl]-2-fluoro-4-[5-(trifluoromethyl)-1,2,4-oxadiazol-3-yl]benzamide], the pest or weed control at 200 ppm (in the experiment on Phakopsora pachyrhizi; in experiment [1]) was at least 80% each time. Moreover, in the experiment on Uromyces viciae-fabae, the pest or weed control at 100 ppm was at least 80%.
On to `CCOC(=O)N1CCC(NC(=O)c2ccc(-c3noc(C(F)(F)F)n3)cc2F)CC1` [Compound 1b.4, ethyl 4-[[2-fluoro-4-[5-(trifluoromethyl)-1,2,4-oxadiazol-3-yl]benzoyl]amino]piperidine-1-carbonylate], for which the pest or weed control at 200 ppm in experiment [1] is at least 80%. Moreover, in the experiment on Uromyces viciae-fabae, the pest or weed control at 100 ppm was at least 80%.
As to `CN(C(=O)c1ccc(-c2noc(C(F)(F)F)n2)cc1F)C1CCSC1` (stereo not drawn) [Compound 1b.8, 2-fluoro-N-methyl-N-tetrahydrothiophen-3-yl-4-[5-(trifluoromethyl)-1,2,4-oxadiazol-3-yl]benzamide], the pest or weed control at 200 ppm in experiment [1] is at least 80%. Besides, the pest or weed control at 100 ppm in the experiment with Uromyces viciae-fabae was at least 80%.
Take `O=C(NC1CCSC1)c1ccc(-c2noc(C(F)(F)F)n2)cc1F` (stereo not drawn) [Compound 1b.11, 2-fluoro-N-tetrahydrothiophen-3-yl-4-[5-(trifluoromethyl)-1,2,4-oxadiazol-3-yl]benzamide]: the pest or weed control at 200 ppm in experiment [1] was at least 80%. Further, in the experiment on Uromyces viciae-fabae, the pest or weed control at 100 ppm is at least 80%.
For `C[C@@H](NC(=O)c1ccc(-c2noc(C(F)(F)F)n2)cc1)C1CCCCC1` [Compound 2a.8, N-[(1R)-1-cyclohexylethyl]-4-[5-(trifluoromethyl)-1,2,4-oxadiazol-3-yl]benzamide], in the experiment with Phakopsora pachyrhizi, the pest or weed control at 200 ppm is at least 80%. The pest or weed control at 100 ppm in the experiment on Uromyces viciae-fabae is at least 80%.
`O=C(NC1CC1c1ccccc1)c1ccc(-c2noc(C(F)(F)F)n2)cc1F` (stereo not drawn) [Compound 2b.7, 2-fluoro-N-(2-phenylcyclopropyl)-4-[5-(trifluoromethyl)-1,2,4-oxadiazol-3-yl]benzamide]: the pest or weed control at 200 ppm in the experiment with Phakopsora pachyrhizi was at least 80%. Besides, in the experiment on Uromyces viciae-fabae, the pest or weed control at 100 ppm was at least 80%.
For the compound `CC1CCCC(NC(=O)c2ccc(-c3noc(C(F)(F)F)n3)cc2F)C1` (stereo not drawn) [Compound 2b.10, 2-fluoro-N-(3-methylcyclohexyl)-4-[5-(trifluoromethyl)-1,2,4-oxadiazol-3-yl]benzamide], in experiment [1], the pest or weed control at 200 ppm was at least 80%. Further, the pest or weed control at 100 ppm in the experiment on Uromyces viciae-fabae is at least 80%.
As for `O=C(NCC1CC(F)(F)C1(F)F)c1ccc(-c2noc(C(F)(F)F)n2)cc1Cl` (stereo not drawn) [Compound 2b.14, 2-chloro-N-[(2,2,3,3-tetrafluorocyclo-butyl)methyl]-4-[5-(trifluoromethyl)-1,2,4-oxadiazol-3-yl]benzamide], in experiment [1], the pest or weed control at 200 ppm was at least 80%. The pest or weed control at 100 ppm in the experiment with Uromyces viciae-fabae was at least 80%.
On to `O=C(NC1(C2CC2)CC1)c1ccc(-c2noc(C(F)(F)F)n2)cc1Cl` [Compound 2b.16, 2-chloro-N-(1-cyclopropylcyclo-propyl)-4-[5-(trifluoromethyl)-1,2,4-oxadiazol-3-yl]benzamide], for which, in experiment [1], the pest or weed control at 200 ppm is at least 80%. For the same compound, the pest or weed control at 100 ppm in the experiment with Uromyces viciae-fabae is at least 80%.
Regarding `O=C(Nc1ccc(Cl)cc1)c1ccc(-c2noc(C(F)(F)F)n2)cc1` [Compound 4a.6, N-(4-chlorophenyl)-4-[5-(trifluoromethyl)-1,2,4-oxadiazol-3-yl]benzamide], the pest or weed control at 200 ppm in the experiment on Phakopsora pachyrhizi is at least 80%. Besides, in the experiment with Uromyces viciae-fabae, the pest or weed control at 100 ppm is at least 80%.
Take `O=C(Nc1ccccc1F)c1ccc(-c2noc(C(F)(F)F)n2)cc1` [Compound 4a.7, N-(2-fluorophenyl)-4-[5-(trifluoromethyl)-1,2,4-oxadiazol-3-yl]benzamide]: in the experiment with Phakopsora pachyrhizi, the pest or weed control at 200 ppm was at least 80%. Also, the pest or weed control at 100 ppm with Uromyces viciae-fabae was at least 80%.
For the compound `O=C(Nc1ccc(F)cc1)c1ccc(-c2noc(C(F)(F)F)n2)cc1` [Compound 4a.8, N-(4-fluorophenyl)-4-[5-(trifluoromethyl)-1,2,4-oxadiazol-3-yl]benzamide], the pest or weed control at 200 ppm in the experiment with Phakopsora pachyrhizi is at least 80%. Further, the pest or weed control at 100 ppm in the experiment with Uromyces viciae-fabae is at least 80%.
With `O=C(Nc1cccc(C(F)(F)F)c1)c1ccc(-c2noc(C(F)(F)F)n2)cc1` [Compound 4a.9, 4-[5-(trifluoromethyl)-1,2,4-oxadiazol-3-yl]-N-[3-(trifluoromethyl)phenyl]benzamide], in the experiment with Phakopsora pachyrhizi, the pest or weed control at 200 ppm was at least 80%. Besides, in the experiment with Uromyces viciae-fabae, the pest or weed control at 100 ppm is at least 80%.
Take `CCc1cccc(NC(=O)c2ccc(-c3noc(C(F)(F)F)n3)cc2)c1` [Compound 4a.10, N-(3-ethylphenyl)-4-[5-(trifluoromethyl)-1,2,4-oxadiazol-3-yl]benzamide]: in the experiment on Phakopsora pachyrhizi, the pest or weed control at 200 ppm was at least 80%. For the same compound, the pest or weed control at 100 ppm with Uromyces viciae-fabae was at least 80%.
For `Cc1ccc(C)c(CNC(=O)c2ccc(-c3noc(C(F)(F)F)n3)cc2)c1` [Compound 4a.11, N-[(2,5-dimethylphenyl)methyl]-4-[5-(trifluoromethyl)-1,2,4-oxadiazol-3-yl]benzamide], the pest or weed control at 200 ppm in the experiment with Phakopsora pachyrhizi was at least 80%. For the same compound, in the experiment on Uromyces viciae-fabae, the pest or weed control at 100 ppm is at least 80%.
Regarding `O=C(Nc1ccc(N2CCOCC2)cc1)c1ccc(-c2noc(C(F)(F)F)n2)cc1` [Compound 4a.12, N-(4-morpholinophenyl)-4-[5-(trifluoromethyl)-1,2,4-oxadiazol-3-yl]benzamide], the pest or weed control at 200 ppm in the experiment on Phakopsora pachyrhizi was at least 80%. Moreover, the pest or weed control at 100 ppm in the experiment on Uromyces viciae-fabae was at least 80%.
For the compound `O=C(Nc1ccccc1)c1ccc(-c2noc(C(F)(F)F)n2)cc1F` [Compound 4b.12, 2-fluoro-N-phenyl-4-[5-(trifluoromethyl)-1,2,4-oxadiazol-3-yl]benzamide], the pest or weed control at 200 ppm in the experiment with Phakopsora pachyrhizi was at least 80%. Besides, the pest or weed control at 100 ppm in the experiment on Uromyces viciae-fabae was at least 80%.
Turning to `O=C(NCc1ccc(F)c(Br)c1)c1ccc(-c2noc(C(F)(F)F)n2)cc1F` [Compound 4b.13, N-[(3-bromo-4-fluoro-phenyl)methyl]-2-fluoro-4-[5-(trifluoromethyl)-1,2,4-oxadiazol-3-yl]benzamide], the pest or weed control at 200 ppm in experiment [1] was at least 80%. Moreover, the pest or weed control at 100 ppm in the experiment on Uromyces viciae-fabae is at least 80%.
For `COc1ccc(CNC(=O)c2ccc(-c3noc(C(F)(F)F)n3)cc2F)c(OC)c1` [Compound 4b.14, N-[(2,4-dimethoxyphenyl)methyl]-2-fluoro-4-[5-(trifluoromethyl)-1,2,4-oxadiazol-3-yl]benzamide], the pest or weed control at 200 ppm in experiment [1] was at least 80%. In the experiment with Uromyces viciae-fabae, the pest or weed control at 100 ppm was at least 80%.
Take `CC(C)(C)c1cc(NC(=O)c2ccc(-c3noc(C(F)(F)F)n3)cc2)[nH]n1` [Compound 5a.2, N-(3-tert-butyl-1H-pyrazol-5-yl)-4-[5-(trifluoromethyl)-1,2,4-oxadiazol-3-yl]benzamide]: the pest or weed control at 200 ppm in the experiment on Phakopsora pachyrhizi is at least 80%. In the experiment with Uromyces viciae-fabae, the pest or weed control at 100 ppm is at least 80%.
In the case of `CC(C)(C)c1cc(NC(=O)c2ccc(-c3noc(C(F)(F)F)n3)cc2F)[nH]n1` [Compound 5b.6, N-(3-tert-butyl-1H-pyrazol-5-yl)-2-fluoro-4-[5-(trifluoromethyl)-1,2,4-oxadiazol-3-yl]benzamide], the pest or weed control at 200 ppm with Phakopsora pachyrhizi is at least 80%. Moreover, the pest or weed control at 100 ppm with Uromyces viciae-fabae is at least 80%.
As to `O=C(NCCCn1ccnc1)c1ccc(-c2noc(C(F)(F)F)n2)cc1F` [Compound 5b.12, 2-fluoro-N-(3-imidazol-1-ylpropyl)-4-[5-(trifluoromethyl)-1,2,4-oxadiazol-3-yl]benzamide], the pest or weed control at 200 ppm in the experiment on Phakopsora pachyrhizi was at least 80%. Moreover, the pest or weed control at 100 ppm in the experiment on Uromyces viciae-fabae was at least 80%.
